Test results published in patent publication US4256462A, “Method and composition for determination of n-nitrosamines” (University of Iowa Research Foundation, priority 1979, dated 1981).

Assay: Denitrosation reaction time, iodo vs bromo salts
Details: sodium iodide reagent
From the text: Particularly for the sodium iodide salt, the reaction will occur within one minute, whereas, when bromo salts are substituted, the reaction times are considerably longer, such as five minutes.

With `[I-].[Na+]` [sodium iodide] the reaction time was “one”.
